What follows are compounds tested against truncated CRBN (319-427) (Homo sapiens (Human), UniProt Q96SW2) (assay: Fluorescence binding assay (fluorescence quenching), affinity to E3-CEREBLON (CRBN)-ubiquitin ligase). Settings: ubiquitination moiety and linker, pH 6.5.
Procedure: Fluorescence quenching end point measurements were performed in black polystyrene 384-plates on Tecan Safire monochromator reader with the following settings: excitation 280 nm; excitation bandwidth 10.0 nm; emission collection 340 nm; emission bandwidth 20.0 nm; high sensitivity flash mode; integration time 40 μS; delay 0 μm. All measurements were done in duplicates; GraphPad Prism 5.03 was used for data evaluation, curve fitting, plotting and determination of IC50 values.
Serial dilutions of each tested ligands were mixed with truncated CRBN (319-427) to a final volume of 25 μL in the assay buffer (20 mM sodium phosphate buffer, pH 6.5, with 150 mM sodium chloride). The final concentration of CRBN in all assay will be 5-10 μM with DMSO level at 4%. A control lanes were prepared with only tested ligands without the addition of CRBN, top up with assay buffer to 25 μL. Plates were incubated for 5 minutes and analyzed using the monochromator plate reader.
IC50 is the compound concentration that causes 50% quenching of the desired activity.

truncated CRBN (319-427), sequence (Q96SW2 319-427): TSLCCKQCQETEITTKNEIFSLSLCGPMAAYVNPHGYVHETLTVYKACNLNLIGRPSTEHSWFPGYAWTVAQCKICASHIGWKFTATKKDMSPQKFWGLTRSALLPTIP

First: [N-]=[N+]=NCCOCCOCCOCCNC(=O)c1cc(-c2ccc3c(c2)NC(=O)C3)ccn1 [Compound 084, N-(2-(2-(2-(2-azidoethoxy)ethoxy)ethoxy)ethyl)-4-(2-oxoindolin-6-yl)picolinamide]
Second: [N-]=[N+]=NCCOCCOCCOCCNc1cc(-c2ccc3c(c2)NC(=O)C3)ccn1 [Compound 085, 6-(2-((2-(2-(2-(2-azidoethoxy)ethoxy)ethoxy)ethyl)amino)pyridin-4-yl)indolin-2-one]
The IC50 of the first is lower: 1 to 100 µM for the first, 100 to 300 µM for the second.

`[N-]=[N+]=NCCOCCOCCOCCNc1ccc(C(=O)Nc2ccc3c(c2)CC(=O)N3)cn1` [Compound 086, 6-((2-(2-(2-(2-azidoethoxy)ethoxy)ethoxy)ethyl)amino)-N-(2-oxoindolin-5-yl)nicotinamide] and `[N-]=[N+]=NCCOCCOCCOCCNc1ccc(-c2ccc3c(c2)CC(=O)N3)cn1` [Compound 092, 5-(6-((2-(2-(2-(2-azidoethoxy)ethoxy)ethoxy)ethyl)amino)pyridin-3-yl)indolin-2-one] fall in the same range of IC50: 1 to 100 µM for the first, 1 to 100 µM for the second.

First: NCCCCCNc1cc(-c2ccc3c(c2)NC(=O)C3)ccn1 [Compound 087, 6-(2-((5-aminopentyl)amino)pyridin-4-yl)indolin-2-one]
Second: [N-]=[N+]=NCCOCCOCCOCCNc1cc(-c2ccc3c(c2)CC(=O)N3)ccn1 [Compound 088, 5-(2-((2-(2-(2-(2-azidoethoxy)ethoxy)ethoxy)ethyl)amino)pyridin-4-yl)indolin-2-one]
The IC50 of the first is higher: greater than 300 µM for the first, 100 to 300 µM for the second. The second is the more potent here.

Compared with `[N-]=[N+]=NCCOCCOCCOCCNc1ccc(-c2ccc3c(c2)NC(=O)C3)cn1` [Compound 089, 6-(6-((2-(2-(2-(2-azidoethoxy)ethoxy)ethoxy)ethyl)amino)pyridin-3-yl)indolin-2-one], `[N-]=[N+]=NCCOCCOCCOCCNc1ncccc1-c1ccc2c(c1)NC(=O)C2` [Compound 095, 6-(2-((2-(2-(2-(2-azidoethoxy)ethoxy)ethoxy)ethyl)amino)pyridin-3-yl)indolin-2-one] is higher in IC50: 100 to 300 µM for the first, greater than 300 µM for the second. The first is the more potent here.

First: Nc1ccc(OCCOCCOCCOCCNC(=O)c2cccc(-c3ccc4c(c3)NC(=O)C4)c2)cc1 [Compound 090, N-(2-(2-(2-(2-(4-aminophenoxy)ethoxy)ethoxy)ethoxy)ethyl)-3-(2-oxoindolin-6-yl)benzamide]
Second: Nc1ccc(OCCOCCOCCOCCNC(=O)c2cccc(-c3ccc4c(c3)CC(=O)N4)c2)cc1 [Compound 091, N-(2-(2-(2-(2-(4-aminophenoxy)ethoxy)ethoxy)ethoxy)ethyl)-3-(2-oxoindolin-5-yl)benzamide]
The IC50 of the first is higher: 100 to 300 µM for the first, 1 to 100 µM for the second.

First: Nc1ccc(OCCOCCOCCOCCNc2ccc(-c3ccc4c(c3)CC(=O)N4)cn2)cc1 [Compound 093, 5-(6-((2-(2-(2-(2-(4-aminophenoxy)ethoxy)ethoxy)ethoxy)ethyl)amino)-pyridin-3-yl)indolin-2-one]
Second: [N-]=[N+]=NCCOCCOCCOCCNc1ncccc1-c1ccc2c(c1)CC(=O)N2 [Compound 094, 5-(2-((2-(2-(2-(2-azidoethoxy)ethoxy)ethoxy)ethyl)amino)pyridin-3-yl)indolin-2-one]
The IC50 of the first is lower: 1 to 100 µM for the first, 100 to 300 µM for the second.

Same assay, conditions: ubiquitination moiety, pH 6.5

First: CN1CCN(C(=O)c2ccc3c(c2)CC(=O)N3)CC1 [Compound 067, 5-(4-methylpiperazine-1-carbonyl)indolin-2-one]
Second: O=C1Cc2cc(C(=O)N3CCC(c4ccccc4)CC3)ccc2N1 [Compound 068, 5-(4-phenylpiperidine-1-carbonyl)indolin-2-one]
The IC50 of the first is higher: greater than 300 µM for the first, 100 to 300 µM for the second.

`O=C1Cc2cc(C(=O)N3CCC(Cc4ccccc4)CC3)ccc2N1` [Compound 069, 5-(4-benzylpiperidine-1-carbonyl)indolin-2-one] and `O=C1Cc2ccc(-c3ccc(F)nc3)cc2N1` [Compound 070, 6-(6-fluoropyridin-3-yl)indolin-2-one] cannot be ordered by IC50: greater than 300 µM for the first, greater than 300 µM for the second.

`O=C1Cc2ccc(NC(=O)c3cccnc3)cc2N1` [Compound 071, N-(2-oxoindolin-6-yl)nicotinamide] and `O=C1Cc2cc(NC(=O)c3cccnc3)ccc2N1` [Compound 072, N-(2-oxoindolin-5-yl)nicotinamide] fall in the same range of IC50: 100 to 300 µM for the first, 100 to 300 µM for the second.

First: O=C1Cc2cc(-c3ccncc3)ncc2N1 [Compound 073, 5-(pyridin-4-yl)-1,3-dihydro-2H-pyrrolo[2,3-c]pyridin-2-one]
Second: O=C1Cc2cnc(-c3ccncc3)cc2N1 [Compound 074, 6-(pyridin-4-yl)-1,3-dihydro-2H-pyrrolo[3,2-c]pyridin-2-one]
The IC50 of the first is higher: greater than 300 µM for the first, 100 to 300 µM for the second.

First: O=C1Cc2ncc(-c3ccncc3)cc2N1 [Compound 075, 6-(pyridin-4-yl)-1,3-dihydro-2H-pyrrolo[3,2-b]pyridin-2-one]
Second: O=C1Cc2cc(NC(=O)c3ccnc(F)c3)ccc2N1 [Compound 076, 2-fluoro-N-(2-oxoindolin-5-yl)isonicotinamide]
The IC50 of the first is higher: greater than 300 µM for the first, 100 to 300 µM for the second. The second is the more potent here.

`NC1CCN(C(=O)c2ccc3c(c2)NC(=O)C3)CC1` [Compound 077, 6-(4-aminopiperidine-1-carbonyl)indolin-2-one] and `NC1CCN(C(=O)c2ccc3c(c2)CC(=O)N3)CC1` [Compound 078, 5-(4-aminopiperidine-1-carbonyl)indolin-2-one] cannot be ordered by IC50: greater than 300 µM for the first, greater than 300 µM for the second.

`COC(=O)c1ccccc1-c1ccc2c(c1)NC(=O)C2` [Compound 079, methyl 2-(2-oxoindolin-6-yl)benzoate] and `NC1CCCN(C(=O)c2ccc3c(c2)NC(=O)C3)C1` (stereo not drawn) [Compound 080, 6-(3-aminopiperidine-1-carbonyl)indolin-2-one] cannot be ordered by IC50: greater than 300 µM for the first, greater than 300 µM for the second.

`NC1CCCN(C(=O)c2ccc3c(c2)CC(=O)N3)C1` (stereo not drawn) [Compound 081, 5-(3-aminopiperidine-1-carbonyl)indolin-2-one] and `CC(C)C1C(=O)Nc2ccc(-c3ccncc3)cc21` (stereo not drawn) [Compound 082, 3-isopropyl-5-(pyridin-4-yl)indolin-2-one] cannot be ordered by IC50: greater than 300 µM for the first, greater than 300 µM for the second.

`CN1C(=O)Cc2cc(C(=O)N3CCCCC3)ccc21` [Compound 083, 1-methyl-5-(piperidine-1-carbonyl)indolin-2-one] and “N-(1-acetylpiperidin-4-yl)-2-oxoindoline-6-carboxamide [Compound 026]” cannot be ordered by IC50: greater than 300 µM for the first, greater than 300 µM for the second.

The compounds below were run on RAMOS cells (Burkitt's lymphoma cell line) (assay: Anti-proliferation assay (CellTiter-Glo)). Settings: Homo sapiens, 72 h, 3 days.
Type: cell-based
Procedure: In cell growth experiments, cells were seeded in 96-well cell culture plates at a density of 3000 of RAMOS cells/well in 100 μL of culture medium. 100 μL of the diluted solution containing the tested compound was added to the appropriate wells of the cell plate. After addition of the tested compound, the cells were incubated at 37° C. in an atmosphere of 5% CO2 for 3 days. CellTiter-Glo (CTG) reagent from the Promega CellTiter-Glo Luminescent Cell Viability Assay kit (#G7572) was added into an OptiPlate 96 (Perkin Elmer, White, Opaque, #6005299) in the dark, incubated for at least 2 hrs, and luminescence signal was read using Tecan Safire II Multi-Mode Plate Reader. The GI50 was calculated by nonlinear regression analysis using GraphPad Prism5 software.
GI50 is the concentration for 50% of maximal inhibition of cell proliferation.

First: Cc1sc2c(c1C)C(c1ccc(Cl)cc1)=N[C@@H](CC(=O)NCCCCCNc1cc(-c3ccc4c(c3)NC(=O)C4)ccn1)c1nnc(C)n1-2 [Compound 096, (S)-2-(4-(4-chlorophenyl)-2,3,9-trimethyl-6H-thieno[3,2-f][1,2,4]triazolo[4,3-a][1,4]diazepin-6-yl)-N-(5-((4-(2-oxoindolin-6-yl)pyridin-2-yl)amino)pentyl)acetamide]
Second: Cc1sc2c(c1C)C(c1ccc(Cl)cc1)=N[C@@H](CC(=O)NCCOCCOCCOCCNc1cc(-c3ccc4c(c3)CC(=O)N4)ccn1)c1nnc(C)n1-2 [Compound 097, (S)-2-(4-(4-chlorophenyl)-2,3,9-trimethyl-6H-thieno[3,2-f][1,2,4]triazolo[4,3-a][1,4]diazepin-6-yl)-N-(2-(2-(2-(2-((4-(2-oxoindolin-5-yl)pyridin-2-yl)amino)ethoxy)ethoxy)ethoxy)ethyl)acetamide]
The GI50 of the first is lower: 0.1 to 1 µM for the first, greater than 1 µM for the second.

`Cc1sc2c(c1C)C(c1ccc(Cl)cc1)=N[C@@H](CC(=O)Nc1ccc(OCCOCCOCCOCCNc3ccc(-c4ccc5c(c4)CC(=O)N5)cn3)cc1)c1nnc(C)n1-2` [Compound 098, (S)-2-(4-(4-chlorophenyl)-2,3,9-trimethyl-6H-thieno[3,2-f][1,2,4]triazolo[4,3-a][1,4]diazepin-6-yl)-N-(4-(2-(2-(2-(2-((5-(2-oxoindolin-5-yl)pyridin-2-yl)amino)ethoxy)ethoxy)ethoxy)ethoxy)phenyl)acetamide] and `Cc1sc2c(c1C)C(c1ccc(Cl)cc1)=N[C@@H](CC(=O)NCCOCCOCCOCCNc1ccc(-c3ccc4c(c3)CC(=O)N4)cn1)c1nnc(C)n1-2` [Compound 099, (S)-2-(4-(4-chlorophenyl)-2,3,9-trimethyl-6H-thieno[3,2-f][1,2,4]triazolo[4,3-a][1,4]diazepin-6-yl)-N-(2-(2-(2-(2-((5-(2-oxoindolin-5-yl)pyridin-2-yl)amino)ethoxy)ethoxy)ethoxy)ethyl)acetamide] fall in the same range of GI50: 0.001 to 0.1 µM for the first, 0.001 to 0.1 µM for the second.

`Cc1sc2c(c1C)C(c1ccc(Cl)cc1)=N[C@@H](CC(=O)NCCOCCOCCOCCNc1ccc(-c3ccc4c(c3)NC(=O)C4)cn1)c1nnc(C)n1-2` [Compound 100, (S)-2-(4-(4-chlorophenyl)-2,3,9-trimethyl-6H-thieno[3,2-f][1,2,4]triazolo[4,3-a][1,4]diazepin-6-yl)-N-(2-(2-(2-(2-((5-(2-oxoindolin-6-yl)pyridin-2-yl)amino)ethoxy)ethoxy)ethoxy)ethyl)acetamide] and `Cc1sc2c(c1C)C(c1ccc(Cl)cc1)=N[C@@H](CC(=O)NCCOCCOCCOCCNc1ccc(C(=O)Nc3ccc4c(c3)CC(=O)N4)cn1)c1nnc(C)n1-2` [Compound 101, (S)-6-((1-(4-(4-chlorophenyl)-2,3,9-trimethyl-6H-thieno[3,2-f][1,2,4]triazolo[4,3-a][1,4]diazepin-6-yl)-2-oxo-6,9,12-trioxa-3-azatetradecan-14-yl)amino)-N-(2-oxoindolin-5-yl)nicotinamide] fall in the same range of GI50: 0.1 to 1 µM for the first, 0.1 to 1 µM for the second.

Source: patent US11542274B1, “Therapeutic compounds and methods of use thereof” (AGENCY FOR SCIENCE, TECHNOLOGY AND RESEARCH (A*STAR), priority 2019, dated 2023)
